Test results from patent publication EP0410278A1, “Renin inhibiting aminooligohydroxy-derivatives” (HOECHST AKTIENGESELLSCHAFT, priority 1989, dated 1991).

Test system: Rhesusaffen
Experiment: In vivo test in furosemide-pretreated, anaesthetised rhesus monkeys: blood pressure, heart rate, plasma renin activity
Conditions: 2 mg/kg i.d. (in 0,1 n Zitronensäure 2 mg/ml); for Änderung PRA [%]: Plasma-Renin-Aktivität
Text: Renin-Hemmer bewirken an salzverarmten Tieren eine Blutdrucksenkung. Da sich menschliches Renin von dem Renin anderer Spezies unterscheidet, werden zum in-vivo-Test von Renin-Hemmern Primaten, wie zum Beispiel Rhesus-Affen, herangezogen.
Primaten-Renin und Human-Renin sind in ihrer Sequenz weitgehend homolog. Durch i.v. Injektion von Furosemid wird eine endogene Renin-Ausschüttung angeregt. Anschließend werden die Testverbindungen verabreicht und ihre Wirkung auf Blutdruck und Herzfrequenz wird gemessen.
6 Rhesusaffen wurden an 6 aufeinanderfolgenden Tagen mit 10 mg/kg·d Furosemid oral vorbehandelt. Am 7. Tag wurden etwa 30 Minuten vor Versuchsbeginn weitere 10 mg/kg Furosemid i.v. verabreicht. Anschließend wurde die Anästhesie mit 20 mg/kg Ketamin i.m. eingeleitet und mit 40 mg/kg Pentobarbiton i.v. fortgesetzt. Ein Seitenarm der Femoralarterie wurde freipräpariert und zur Blutdruckmessung mittels eines Blutdruck-Wandlers (P 23 ID) kanuliert. Blutproben zur Bestimmung der Plasma-Renin-Aktivität wurden über eine Braunüle in der Saphena-Vene abgenommen.
Die Titelverbindung des Beispiels 2 zeigt folgendes Ergebnis: 2 mg/kg i.d. (in 0,1 n Zitronensäure 2 mg/ml)

Structure (SMILES): CC(C)(C)S(=O)(=O)CC(Cc1ccccc1)C(=O)NC(Cc1c[nH]cn1)C(=O)NC(CC1CCCCC1)C(O)C(O)C(O)C(O)CO [Beispiel 2, (2(S)-Benzyl,3-t-butylsulfonyl)propionyl-His-[(D)-Manno-Pentol]]
- Blutdruck-Änderung [%] (t 1 min): -0,72%
- Puls-Änderung [%] (t 1 min): -1,16%
- Blutdruck-Änderung [%] (t 3 min): -8,21%
- Puls-Änderung [%] (t 3 min): -1,61%
- Blutdruck-Änderung [%] (t 5 min): -11,53%
- Puls-Änderung [%] (t 5 min): -2,42%
- Blutdruck-Änderung [%] (t 10 min): -11,82%
- Puls-Änderung [%] (t 10 min): -2,51%
- Blutdruck-Änderung [%] (t 15 min): -12,68%
- Puls-Änderung [%] (t 15 min): -3,49%
- Blutdruck-Änderung [%] (t 20 min): -13,48%
- Puls-Änderung [%] (t 20 min): -1,97%
- Blutdruck-Änderung [%] (t 30 min): -16,43%
- Puls-Änderung [%] (t 30 min): -1,61%
- Blutdruck-Änderung [%] (t 45 min): -12,82%
- Puls-Änderung [%] (t 45 min): +0,09%
- Blutdruck-Änderung [%] (t 60 min): -13,98%
- Puls-Änderung [%] (t 60 min): -0,09%
- Puls-Änderung [%] (t 75 min): +1,16%
- Puls-Änderung [%] (t 90 min): +3,04%
- Änderung PRA [%] (t 15 min): -20%
- Änderung PRA [%] (t 30 min): -62%
- Änderung PRA [%] (t 45 min): -53%
- Änderung PRA [%] (t 60 min): -58%
- Änderung PRA [%] (t 90 min): -51%
- Änderung PRA [%] (t 120 min): -47%
